Article doi:10.1101/2023.11.24.568596v1 (biorxiv, 2023)

Experiments:
Settings in all cases: binder
[1] = molecular target: EphA7 (Homo sapiens, UniProt Q15375)
[2] = molecular target: T1, DYRK2 (Homo sapiens, UniProt Q92630)
T1 sequence (Q92630 1-601): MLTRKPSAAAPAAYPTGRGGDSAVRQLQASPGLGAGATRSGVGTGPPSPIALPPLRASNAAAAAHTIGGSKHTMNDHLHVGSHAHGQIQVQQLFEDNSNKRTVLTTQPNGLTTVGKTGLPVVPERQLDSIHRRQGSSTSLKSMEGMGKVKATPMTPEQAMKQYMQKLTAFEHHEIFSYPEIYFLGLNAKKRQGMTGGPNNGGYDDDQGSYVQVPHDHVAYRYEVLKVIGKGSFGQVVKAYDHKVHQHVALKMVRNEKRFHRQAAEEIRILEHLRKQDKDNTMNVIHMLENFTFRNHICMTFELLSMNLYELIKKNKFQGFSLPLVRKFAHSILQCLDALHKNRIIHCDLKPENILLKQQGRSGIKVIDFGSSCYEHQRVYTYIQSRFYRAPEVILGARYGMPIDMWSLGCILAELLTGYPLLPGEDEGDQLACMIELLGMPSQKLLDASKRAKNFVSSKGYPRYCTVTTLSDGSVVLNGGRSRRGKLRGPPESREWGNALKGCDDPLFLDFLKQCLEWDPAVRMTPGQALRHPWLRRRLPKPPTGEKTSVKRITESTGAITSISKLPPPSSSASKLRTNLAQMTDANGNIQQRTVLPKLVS

[3] = molecular target: T2, PLK4 (Homo sapiens, UniProt O00444)
T2 sequence (O00444 1-970): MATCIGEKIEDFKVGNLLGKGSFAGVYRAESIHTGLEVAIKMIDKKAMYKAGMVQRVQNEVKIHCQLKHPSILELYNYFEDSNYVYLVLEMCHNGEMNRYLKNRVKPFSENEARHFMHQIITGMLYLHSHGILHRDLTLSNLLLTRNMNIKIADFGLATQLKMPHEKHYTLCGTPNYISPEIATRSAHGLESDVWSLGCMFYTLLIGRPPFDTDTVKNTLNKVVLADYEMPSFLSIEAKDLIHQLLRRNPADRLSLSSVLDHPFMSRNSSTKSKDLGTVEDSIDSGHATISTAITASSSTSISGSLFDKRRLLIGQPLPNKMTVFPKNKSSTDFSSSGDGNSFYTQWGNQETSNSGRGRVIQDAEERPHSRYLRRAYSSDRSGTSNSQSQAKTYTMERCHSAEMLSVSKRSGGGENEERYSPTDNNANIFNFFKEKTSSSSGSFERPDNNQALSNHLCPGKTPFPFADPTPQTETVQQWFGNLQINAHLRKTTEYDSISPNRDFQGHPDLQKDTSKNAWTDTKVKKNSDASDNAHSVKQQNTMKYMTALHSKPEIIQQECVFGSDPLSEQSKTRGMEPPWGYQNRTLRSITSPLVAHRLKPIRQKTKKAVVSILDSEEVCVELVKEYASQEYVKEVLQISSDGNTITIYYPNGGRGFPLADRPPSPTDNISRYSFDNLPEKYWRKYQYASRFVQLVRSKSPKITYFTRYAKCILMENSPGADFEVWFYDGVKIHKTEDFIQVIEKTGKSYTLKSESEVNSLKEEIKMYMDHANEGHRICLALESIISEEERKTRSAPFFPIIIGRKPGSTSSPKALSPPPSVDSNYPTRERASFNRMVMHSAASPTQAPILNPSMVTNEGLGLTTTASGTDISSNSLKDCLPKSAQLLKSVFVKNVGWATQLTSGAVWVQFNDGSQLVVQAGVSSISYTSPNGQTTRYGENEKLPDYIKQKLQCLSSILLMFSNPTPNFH

[4] = molecular target: FES (Homo sapiens, UniProt P07332)
[5] = molecular target: CaMK2b (Homo sapiens, UniProt Q13554)
[6] = molecular target: MRCKa (Homo sapiens, UniProt Q5VT25)
Chain of MRCKa (Q5VT25 whole entry): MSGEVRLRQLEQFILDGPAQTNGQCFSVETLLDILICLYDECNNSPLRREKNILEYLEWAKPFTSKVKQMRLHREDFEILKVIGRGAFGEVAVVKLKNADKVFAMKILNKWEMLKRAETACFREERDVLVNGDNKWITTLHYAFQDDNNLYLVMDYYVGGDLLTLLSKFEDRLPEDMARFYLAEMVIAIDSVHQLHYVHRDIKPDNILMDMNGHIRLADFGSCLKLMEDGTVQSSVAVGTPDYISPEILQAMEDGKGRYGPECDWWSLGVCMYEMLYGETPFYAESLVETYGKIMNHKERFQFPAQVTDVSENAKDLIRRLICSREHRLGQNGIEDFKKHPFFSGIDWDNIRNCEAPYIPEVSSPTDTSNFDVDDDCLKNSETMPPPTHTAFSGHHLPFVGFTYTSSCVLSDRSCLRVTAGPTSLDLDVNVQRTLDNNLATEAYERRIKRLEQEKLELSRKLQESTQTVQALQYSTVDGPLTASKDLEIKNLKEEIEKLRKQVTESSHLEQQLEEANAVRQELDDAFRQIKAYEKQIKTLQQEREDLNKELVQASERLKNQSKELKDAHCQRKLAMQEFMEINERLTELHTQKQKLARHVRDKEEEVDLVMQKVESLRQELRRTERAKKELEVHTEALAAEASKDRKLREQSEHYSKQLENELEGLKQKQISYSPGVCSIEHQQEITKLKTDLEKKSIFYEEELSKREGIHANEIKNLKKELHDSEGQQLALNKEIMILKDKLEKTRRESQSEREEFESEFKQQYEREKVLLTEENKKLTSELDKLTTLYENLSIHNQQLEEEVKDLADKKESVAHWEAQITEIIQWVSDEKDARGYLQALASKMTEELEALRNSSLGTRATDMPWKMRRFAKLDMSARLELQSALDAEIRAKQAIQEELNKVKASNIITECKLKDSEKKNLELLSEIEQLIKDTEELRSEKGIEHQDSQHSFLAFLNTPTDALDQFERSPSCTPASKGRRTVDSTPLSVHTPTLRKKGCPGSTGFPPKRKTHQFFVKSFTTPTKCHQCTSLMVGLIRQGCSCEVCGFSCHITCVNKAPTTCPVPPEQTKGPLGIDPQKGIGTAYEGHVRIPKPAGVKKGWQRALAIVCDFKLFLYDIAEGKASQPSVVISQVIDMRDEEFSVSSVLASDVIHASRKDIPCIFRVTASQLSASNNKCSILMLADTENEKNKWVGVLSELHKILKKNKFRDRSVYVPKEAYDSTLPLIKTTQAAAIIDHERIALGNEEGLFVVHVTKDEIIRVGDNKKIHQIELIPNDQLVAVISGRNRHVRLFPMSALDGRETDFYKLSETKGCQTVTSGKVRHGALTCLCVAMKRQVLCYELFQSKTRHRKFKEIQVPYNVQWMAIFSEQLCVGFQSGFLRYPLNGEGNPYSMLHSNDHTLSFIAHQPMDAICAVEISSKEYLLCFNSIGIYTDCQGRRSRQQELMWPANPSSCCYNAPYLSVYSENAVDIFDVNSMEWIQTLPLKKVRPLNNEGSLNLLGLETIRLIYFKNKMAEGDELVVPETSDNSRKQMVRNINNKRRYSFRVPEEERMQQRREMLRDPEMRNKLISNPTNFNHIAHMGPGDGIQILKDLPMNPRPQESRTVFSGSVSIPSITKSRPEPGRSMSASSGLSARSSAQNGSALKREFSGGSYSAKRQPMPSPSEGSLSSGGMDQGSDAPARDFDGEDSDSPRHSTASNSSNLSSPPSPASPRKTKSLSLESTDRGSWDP

Chain of EphA7 (Q15375 whole entry): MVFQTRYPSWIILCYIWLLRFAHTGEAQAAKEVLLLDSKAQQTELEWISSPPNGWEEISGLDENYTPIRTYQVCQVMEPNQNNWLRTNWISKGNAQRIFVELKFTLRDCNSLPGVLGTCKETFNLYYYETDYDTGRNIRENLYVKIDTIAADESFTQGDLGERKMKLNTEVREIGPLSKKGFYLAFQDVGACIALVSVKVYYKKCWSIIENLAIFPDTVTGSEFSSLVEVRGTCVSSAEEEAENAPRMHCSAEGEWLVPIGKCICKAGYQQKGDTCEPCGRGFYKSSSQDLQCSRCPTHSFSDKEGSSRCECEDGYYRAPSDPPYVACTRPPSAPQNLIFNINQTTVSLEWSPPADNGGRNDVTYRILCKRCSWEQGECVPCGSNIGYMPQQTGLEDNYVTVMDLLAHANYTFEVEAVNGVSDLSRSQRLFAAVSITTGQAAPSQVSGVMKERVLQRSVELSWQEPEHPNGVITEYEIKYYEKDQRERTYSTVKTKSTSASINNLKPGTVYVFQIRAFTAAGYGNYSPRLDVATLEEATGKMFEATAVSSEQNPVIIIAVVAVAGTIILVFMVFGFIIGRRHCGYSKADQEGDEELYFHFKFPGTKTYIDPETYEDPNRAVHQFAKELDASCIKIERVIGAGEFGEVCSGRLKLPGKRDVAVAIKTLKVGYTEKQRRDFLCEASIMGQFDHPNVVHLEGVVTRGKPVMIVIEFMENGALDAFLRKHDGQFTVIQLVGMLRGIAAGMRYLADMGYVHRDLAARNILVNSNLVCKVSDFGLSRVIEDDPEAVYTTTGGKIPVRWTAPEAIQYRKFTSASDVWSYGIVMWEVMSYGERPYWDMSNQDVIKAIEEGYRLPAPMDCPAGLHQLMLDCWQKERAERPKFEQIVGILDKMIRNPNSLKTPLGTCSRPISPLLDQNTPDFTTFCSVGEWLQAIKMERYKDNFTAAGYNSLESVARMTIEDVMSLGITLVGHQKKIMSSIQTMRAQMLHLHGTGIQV
Chain of FES (P07332 whole entry): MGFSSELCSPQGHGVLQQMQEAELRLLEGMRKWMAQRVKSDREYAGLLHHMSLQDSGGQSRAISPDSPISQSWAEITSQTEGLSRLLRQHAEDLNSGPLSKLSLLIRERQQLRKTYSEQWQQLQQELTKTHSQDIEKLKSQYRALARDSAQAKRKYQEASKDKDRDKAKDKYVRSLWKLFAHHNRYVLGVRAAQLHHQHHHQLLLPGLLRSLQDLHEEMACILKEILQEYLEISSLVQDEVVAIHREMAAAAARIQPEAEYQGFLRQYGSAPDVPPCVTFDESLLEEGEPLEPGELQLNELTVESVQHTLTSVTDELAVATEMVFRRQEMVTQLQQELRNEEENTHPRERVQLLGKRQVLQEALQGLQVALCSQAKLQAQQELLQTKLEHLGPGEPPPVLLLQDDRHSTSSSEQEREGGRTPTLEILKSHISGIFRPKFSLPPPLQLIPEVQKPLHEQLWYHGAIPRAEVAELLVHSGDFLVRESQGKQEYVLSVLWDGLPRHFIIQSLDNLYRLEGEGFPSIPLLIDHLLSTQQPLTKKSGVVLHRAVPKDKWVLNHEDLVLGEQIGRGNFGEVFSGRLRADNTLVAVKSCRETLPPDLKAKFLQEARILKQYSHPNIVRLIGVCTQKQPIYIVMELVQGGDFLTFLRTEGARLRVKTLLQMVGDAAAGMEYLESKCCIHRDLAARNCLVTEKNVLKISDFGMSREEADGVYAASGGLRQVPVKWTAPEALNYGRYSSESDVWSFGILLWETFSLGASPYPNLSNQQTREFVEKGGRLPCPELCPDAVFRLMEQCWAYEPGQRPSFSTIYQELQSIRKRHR
Chain of CaMK2b (Q13554 whole entry): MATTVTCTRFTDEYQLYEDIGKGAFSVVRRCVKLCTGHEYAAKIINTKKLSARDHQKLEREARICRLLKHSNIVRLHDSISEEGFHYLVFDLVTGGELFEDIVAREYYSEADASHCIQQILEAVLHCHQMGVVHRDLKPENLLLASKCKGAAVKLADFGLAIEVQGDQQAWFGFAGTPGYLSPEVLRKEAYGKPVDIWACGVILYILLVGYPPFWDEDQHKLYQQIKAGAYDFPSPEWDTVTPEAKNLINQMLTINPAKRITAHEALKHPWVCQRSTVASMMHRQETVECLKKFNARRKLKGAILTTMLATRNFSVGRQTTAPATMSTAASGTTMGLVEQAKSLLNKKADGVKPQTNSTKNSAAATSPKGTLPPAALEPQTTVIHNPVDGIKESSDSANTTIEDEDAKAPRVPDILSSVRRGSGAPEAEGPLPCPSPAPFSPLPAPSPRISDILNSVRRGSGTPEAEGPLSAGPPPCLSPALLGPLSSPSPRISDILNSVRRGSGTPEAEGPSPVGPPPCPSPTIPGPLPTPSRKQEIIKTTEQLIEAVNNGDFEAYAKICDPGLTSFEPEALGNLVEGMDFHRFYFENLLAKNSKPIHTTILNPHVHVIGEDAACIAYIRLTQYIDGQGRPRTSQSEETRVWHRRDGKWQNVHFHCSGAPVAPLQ

CNc1ncc2cc(-c3ccc(-c4cccc(C)n4)cc3Cl)c(=O)n(CCCCN)c2n1 [compound 20, MRLW5]
ΔTm MRLW5 (20) [1]: 7.7 °C | ΔTm MRLW5 (20) [2]: -0.1 °C | ΔTm MRLW5 (20) [3]: 5.2 °C | ΔTm MRLW5 (20) [4]: 5.9 °C | ΔTm MRLW5 (20) [5]: -1.3 °C | ΔTm MRLW5 (20) [6]: 1.0 °C

CNc1ncc2cc(-c3ccc(-c4cccc(C)n4)cc3Cl)c(=O)n(CCC3CCNCC3)c2n1 [compound 22, 6-(2-Chloro-4-(6-methylpyridin-2-yl)phenyl)-2-(methylamino)-8-(2-(piperidin-4-yl)ethyl)pyrido[2,3-d]pyrimidin-7(8H)-one]
ΔTm 22 [1]: 7.7 °C | ΔTm 22 [2]: -0.4 °C | ΔTm 22 [3]: 7.3 °C | ΔTm 22 [4]: 5.4 °C | ΔTm 22 [5]: -0.9 °C | ΔTm 22 [6]: 1.8 °C

CNc1ncc2cc(-c3ccc(-c4cccc(C)n4)cc3Cl)c(=O)n(C[C@H]3CC[C@H](N)CC3)c2n1 [compound 23, 23]
ΔTm 23 [1]: 10.4 °C | ΔTm 23 [2]: -0.2 °C | ΔTm 23 [3]: 7.1 °C | ΔTm 23 [4]: 5.5 °C | ΔTm 23 [5]: 0.2 °C | ΔTm 23 [6]: 2.9 °C

Cc1cccc(-c2ccc(-c3cc4cnc(NC(CO)CO)nc4n(CCCCN)c3=O)c(Cl)c2)n1 [compound 24, 8-(4-Aminobutyl)-6-(2-chloro-4-(6-methylpyridin-2-yl)phenyl)-2-((1,3-dihydroxypropan-2-yl)amino)pyrido[2,3-d]pyrimidin-7(8H)-one]
ΔTm MR24 (24) [1]: 0.3 °C | ΔTm MR24 (24) [2]: -0.3 °C | ΔTm MR24 (24) [3]: 1.3 °C | ΔTm MR24 (24) [4]: 4.3 °C | ΔTm MR24 (24) [5]: -0.8 °C | ΔTm MR24 (24) [6]: -0.7 °C

Cc1cccc(-c2ccc(-c3cc4cnc(NCCCc5ccc(N)cc5)nc4n(CCCCN)c3=O)c(Cl)c2)n1 [compound 25, 8-(4-Aminobutyl)-2-((3-(4-aminophenyl)propyl)amino)-6-(2-chloro-4-(6-methylpyridin-2-yl)phenyl)pyrido[2,3-d]pyrimidin-7(8H)-one]
ΔTm 25 [1]: 5.1 °C | ΔTm 25 [2]: -0.6 °C | ΔTm 25 [3]: 6.7 °C | ΔTm 25 [4]: 5.9 °C | ΔTm 25 [5]: -0.1 °C | ΔTm 25 [6]: 0.0 °C

Cc1cccc(-c2ccc(-c3cc4cnc(NCCCN5CCOCC5)nc4n(CCCCN)c3=O)c(Cl)c2)n1 [compound 26, MR26]
ΔTm MR26 (26) [1]: 2.7 °C | ΔTm MR26 (26) [2]: -0.2 °C | ΔTm MR26 (26) [3]: 5.1 °C | ΔTm MR26 (26) [4]: 5.6 °C | ΔTm MR26 (26) [5]: -0.3 °C | ΔTm MR26 (26) [6]: -0.2 °C
